Assays:
male Balb/c mice = experiment: Territorial Resident/Intruder aggression test; format: in vivo
Procedure: Data presented in this report indicate that long-term expression of Peptide YY3-36, an agonist of NPY Y receptors with higher affinity for the Y2 receptor, abolish aggressive behavior in mice. To test these observations, we used the territorial Resident/Intruder (R/I) aggressive paradigm (6), a standard test for evaluating rodent aggressive behavior. The test was applied on three different occasions using different intruders. Tests were recorded and analyzed in a blind manner using the Observer v5.0 software (Noldus Information Technology) (see videos, Supplementary data) (7).
Behavioral studies: Aggression territorial-Intruder test were performed on week 24 after the treatment (6). Briefly, PYY-, or GFP-treated resident mice were individually housed for at least two weeks prior to testing. Bedding from cages was not changed during the testing period to avoid unnecessary stress. On the day of the experiment, a smaller size intruder was placed into the resident cage for 10 minutes and the resident's behavior was recorded with a video camera. Each experiment was repeated 3 times on three different occasions and with different intruders. The videos from the experiments were analyzed for non-aggressive and aggressive behavior by an expert in a blind manner using The Observer v5.0 software (Noldus Information Technology) (7).
Data was reported in mean±SEM.

mice = experiment: PYY mouth spray, food intake after 24 hours fasting; format: in vivo
Procedure: Synthetic PYY was purchased from Bachem, Inc USA (Cat #H-6042) and diluted in sterile H2O. Sterile un-used perfume sample vials (Saphora) were utilized to administer PYY in the form of a mouth spray. It was estimated that the volume of one spray approximates to about […].
Mice were conditioned three times to 24 hours fasting starting at the beginning of the dark cycle and ending at the end of the light cycle. At the end of the fasting cycle and as a part of conditioned routine, a sterile water spray had been administered into the mouth. All the experiments were done during the first hour of the dark cycle after fasting. Once the dark cycle started, mice were sprayed once with either PYY or sterile H2O in a total volume of […] per spray. After the treatment, mice were returned to their cages and ten minutes later pre-weighted chow was provided. One hour later, the amount of consumed chow had been recorded by measuring the leftover amount. When the experiments were repeated, mice were fasted only once a week with the control and experimental groups rotated.

Substance	chase duration (male Balb/c mice; vs control mice)	chase events (male Balb/c mice; vs control mice)	attack duration (male Balb/c mice; vs controls)	attack latency (male Balb/c mice; vs controls)	normal social interactions manifested by sniffing (male Balb/c mice; vs controls)	threat duration (male Balb/c mice; vs controls)	threat events (male Balb/c mice; vs controls)	attack events (male Balb/c mice; week 24 after treatment, n=5, mean±SEM) [events per 10 min]	decrease in the number of attack events compared to controls (male Balb/c mice; week 24 after treatment, n=5, p<0.05) [fold]	dose response of PYY mouth spray on FI after one hour (mice; mouth spray)	less food consumed in one hour compared to H2O spray control (mice; one mouth spray, 5 ug per 100 g of body weight, after 24 h fasting, average, P=0.03) [%]
PYY3-36: endogenous NPY Y2 receptor agonist; salivary level raised long-term by rAAV-PYY in the treated mice	decrease	decrease	significant decrease	significant increase	did not change	significant decrease	significant decrease	0.07±0.067	44	–	–
PYY: Synthetic PYY purchased from Bachem (Cat #H-6042), diluted in sterile H2O, given as a mouth spray [Peptide YY]	–	–	–	–	–	–	–	–	–	significant PYY dose response effect	15
